Experimental findings from patent US9512176B2, “Age inhibitors” (Centre National de la Recherche Scientifique, priority 2005, dated 2016) are described below.

Data set [1] deals with EA.hy 926 cell line. Kind of data set: Growth of EA.hy 926 endothelial cells with MG scavengers and/or methylglyoxal (MTT). The class given is cell-based, human. As to conditions: for viability at 1000 µM: Homo sapiens, EA.hy 926, read-out: Cells + MG scavengers + Methylglyoxal (B); for Difference (B) − (A): Table 2, cells with scavenger + MG minus cells with scavenger alone; for Cells + MG scavengers (A): scavenger 1 mM, no methylglyoxal, number of cells relative to untreated control cells; for difference between number of cells growing with compound and with MG and compound: values in brackets; for effect against suppression of cell growth by MG: scavenger + methylglyoxal; for cell toxicity: text b496, compound alone. On the procedure:
The cells used for the test are from the EA.hy 926 cell line, which are endothelial cells obtained by the hybridization of human umbilical vein endothelial cells (HUVECs) with lung cancer cells (A549). The EA.hy 926 endothelial cells are incubated in Dulbecco's modified Eagle's Medium (DMEM) enriched with 10% fetal calf serum. The cells are incubated in 12-well plates. Each well initially contains 100,000 cells. Cell growth is achieved by incubating the cells in 2 ml of culture medium after adding or not adding the various potential inhibitors (1 mM) and/or methylglyoxal (600 μM) for 48 hours at 37° C. in a moist atmosphere with 5% CO2.
The number of cells is evaluated in the following way:
The cells are stained using the (4,5-dimethylthiazol-2-yl)-2,5-diphenyltetrazolium bromide (MTT) assay. MTT penetrates in the cell where it is converted into formazan. The quantity of formazan formed is proportional to the number of living cells.
The results are expressed as a relative percentage of the number of cells after treatment compared to the number of control cells without treatment [100*OD (treated cells)/OD (control cells)]. Detection is carried out by UV/visible spectrophotometry at 570 nm.
Principle: MTT (yellow) penetrates the cell and is converted into an insoluble blue compound, formazan, by cleavage of its tetrazolium rings by the mitochondrial dehydrogenase enzymes of living cells. Formazan is solubilized by isopropanol. The number of cells is proportional to the quantity of formazan formed and its absorbance.

In data set [2] the test system is ribonuclease A. In words: Enzymatic activity of ribonuclease A after treatment with methylglyoxal and inhibitors (methylene blue RNA staining). Format: biochemical. As to conditions: ribonuclease A treated with methylglyoxal (MG) + inhibitor in equimolar quantity, 37° C.; control RNase 100, RNase + methylglyoxal 10.11%. On the procedure:
(§1) Ribonuclease A and lysozyme (10 mg/ml) are incubated in the presence of methylglyoxal (10 mM) or in the presence of methylglyoxal and one of the inhibitors according to the present invention in an equimolar quantity at 37° C. After 48 hours of incubation, the proteins are analyzed by polyacrylamide gel electrophoresis (8%-16% SDS PAGE gel).
The enzymatic activity of ribonuclease A after treatment with methylglyoxal and the various inhibitors according to the present invention is measured using the methylene blue RNA staining technique of Greiner-Stöffele et al. (Anal. Biochem. (1996) 240, 24).

For data set [3], the system named is ribonuclease A. In words: SDS PAGE electrophoresis of ribonuclease A incubated with methylglyoxal and inhibitor. As to conditions: ribonuclease A 10 mg/ml, methylglyoxal 10 mM, inhibitor equimolar, 37° C., 48 hours. The class given is biochemical. The procedure: as §1
The AGE inhibitors according to the present invention, namely L-DAPA-L-Leu (example 1) and L-DAPA-L-Ile (example 18), or AG (10 mM) are incubated with MG and ribonuclease A for […] at 37° C.

Data set [4] deals with lysozyme. Kind of data set: SDS PAGE electrophoresis of lysozyme incubated with methylglyoxal and inhibitor. Format: biochemical. As to conditions: lysozyme 10 mg/ml, methylglyoxal 10 mM, inhibitor equimolar, 37° C., 48 hours. On the procedure:
as §1

Data set [5] deals with glyoxalase I. Kind of data set: Glyoxalase I treated with methylglyoxal: non-denaturing electrophoresis and enzymatic activity. The class given is biochemical. The procedure: MG reacts with a protein's lysine and arginine residues, thus altering the charges on the modified polypeptide. […] The exposure of glyoxalase I to MG (10 mM) for 24 hours increases the mobility of the protein toward the positive electrode, a change that is consistent with the loss of positive charges from the ε-amino and guanidino groups and the gain of negative charges.
The incubation of glyoxalase I, a key protein in the α-oxoaldehyde detoxification system, in the presence of methylglyoxal, modifies the protein. This modification causes a change in charge and a 50% decrease in enzymatic activity compared to the control.

The test system of data set [6] is RNase A. Kind of data set: RNase A modifications induced by methylglyoxal (HPLC). Format: biochemical. Particulars: RNase A 0.08 mM, methylglyoxal 32 mM, compound 38 mM, 21 hours at 37° C. The procedure: FIGS. 11 to 13 present the results obtained by HPLC for three compounds according to the present invention, L-DAPA-L-Ile (example 18), L-DAPA-L-Val (example 23) and L-DAPA-L-Leu (example 1), on RNase A modifications induced by methylglyoxal. HPLC conditions are as follows: C-18, Symmetry 300 (4.6×250 mm) column, injection volume 100 μl of reaction mixture diluted to 1/10; flow 1 ml/min; temperature 40° C.; solvent A: H2O+0.1% TFA; solvent B: 60/40 CH3CN/H2O+0.1% TFA; linear gradient of 20% B to 80% B in 20 minutes; detection: UV at 215 nm: PDA (chromatograms extracted at 215 nm).

The mark [7] stands for this setting: scavenger 1 mM + methylglyoxal 600 μM, 48 hours, relative to untreated control cells, MG alone 24, mean of 3 experiments.
The mark [8] stands for this setting: 48 hours, mean of 3 experiments.

Entries after “also recorded” stand apart in the source; their conditions may differ. Non-standard residues stand in square brackets, D forms with d. Residues, ends and D or L forms follow the SMILES beside them. ξ: configuration not given here. Ile(3ξ) = CCC(C)[C@H](N)C(=O)O; dDap = NC[C@@H](N)C(=O)O; Dap = NC[C@H](N)C(=O)O

For the compound `N[C@H](C(=O)NCC(=O)O)[C@@H](N)C(=O)NCC(=O)O` [example 28, (2S,3R)-DASA-1-Gly-4-Gly.2HCl], the viability at 1000 µM in data set [1] (setting [7]) is 54%. Besides, the “Difference (B) − (A)” value in data set [1] was −7. Besides, the “Cells + MG scavengers (A)” value in data set [1] (setting [8]) amounted to 61%.
In the case of `NC[C@H](N)C(=O)N[C@@H](Cc1ccccc1)C(=O)O` [example 21, L-DAPA-L-Phe.2HCl] (H-[Dap]-Phe-OH), the “Enzymatic activity (%)” value in data set [2] turned out to be 70.20%. In addition, the viability at 1000 µM in data set [1] (setting [7]) turned out to be 71%. Further, in data set [1], the “Difference (B) − (A)” value is −6; the “difference between number of cells growing with compound and with MG and compound” value (“difference between number” for short) is −6. For the same compound, the “Cells + MG scavengers (A)” value in data set [1] (setting [8]) came to 77%.
`CC(C)C[C@H](NC(=O)[C@@H](N)[C@H](C)N)C(=O)O` [example 12, (2S,3S)-DABA-L-Leu.2HCl]: the “Enzymatic activity (%)” value in data set [2] stood at 80.97%. The viability at 1000 µM in data set [1] (setting [7]) was 73%. Moreover, the “Difference (B) − (A)” value in data set [1] is −4. Besides, in data set [1] (setting [8]), the “Cells + MG scavengers (A)” value worked out at 77%. In data set [1], the “difference between number” value was −4. Besides, the “protection from structural modifications (dimer form) caused by methylglyoxal” value (from here on “protection from structural modifications”) in data set [3] and in data set [4] was “provides protection” throughout.
Take `CC(C)C[C@H](NC(=O)[C@@H](N)CN)C(=O)O` [example 3, L-DAPA-L-Leu.2TFA] (H-[Dap]-Leu-OH): in data set [1], the “difference between number” value is on record as −18.
In the case of `CN(C)C(=N)N=C(N)N` [Metformin, reference compound], the viability at 1000 µM in data set [1] (setting [7]) stood at 45%. In data set [1], the “Difference (B) − (A)” value is given as −46 and the “effect against suppression of cell growth by MG” value (shortened to “effect against suppression”) is reported as “less effective; also recorded: weak scavenger”. Further, the “toxicity with respect to EA cells” value in data set [1] (compound alone, 1 mM) is reported as “extremely low toxicity”. The “Cells + MG scavengers (A)” value in data set [1] (setting [8]) worked out at 91%.
On to `NCCC(=O)N[C@@H](Cc1cnc[nH]1)C(=O)O` [Carnosine, β-alanyl-L-histidine, reference compound], for which the viability at 1000 µM in data set [1] (setting [7]) was 50%. Besides, in data set [1], the “Difference (B) − (A)” value is listed as −49 and the “effect against suppression” value was “less effective”. Moreover, in data set [1] (setting [8]), the “Cells + MG scavengers (A)” value stood at 99%.
In the case of `C[C@@H](NC(=O)[C@H](N)CN)C(=O)O` [example 8, D-DAPA-D-Ala.2HCl] (H-[dDap]-[dA]-OH), the “Enzymatic activity (%)” value in data set [2] is 87.37%. Moreover, the viability at 1000 µM in data set [1] (setting [7]) came to 71%. Moreover, in data set [1], the “Difference (B) − (A)” value is −6; the cell toxicity came to 39%; the “difference between number” value was “+1”. For the same compound, the “Cells + MG scavengers (A)” value in data set [1] (setting [8]) is reported as 77%. Further, the “protection from structural modifications” value in data set [3] was “provides protection”. The “protection from structural modifications” value in data set [4] is on record as “provides protection”.
Take `NC[C@H](N)C(=O)NCC(=O)O` [example 17, L-DAPA-Gly.2HCl] (H-[Dap]-Gly-OH): the “Enzymatic activity (%)” value in data set [2] worked out at 85.61%. In addition, the viability at 1000 µM in data set [1] (setting [7]) stood at 50%. For the same compound, in data set [1], the “Difference (B) − (A)” value was −4; the cell toxicity worked out at 43%; the “difference between number” value is given as “+3”. In addition, in data set [1] (setting [8]), the “Cells + MG scavengers (A)” value is given as 54%. Besides, the “protection from structural modifications” value in data set [3] is “provides protection”. In addition, the “protection from structural modifications” value in data set [4] is on record as “provides protection”.
Turning to `NCCCC[C@H](N)C(=O)O` [L-Lys, reference compound], the “Difference (B) − (A)” value in data set [1] is recorded as −38. In addition, the “Cells + MG scavengers + Methylglyoxal (B)” value in data set [1] (setting [7]) is given as 43%. Further, the “Cells + MG scavengers (A)” value in data set [1] (setting [8]) stood at 81%.
Consider `CC(C)C[C@H](NC(=S)[C@@H](N)CN)C(=O)O` [example 16, L-DAPA-L-(S)-Leu.2HCl], for which the “Enzymatic activity (%)” value in data set [2] is on record as 75.69%. The viability at 1000 µM in data set [1] (setting [7]) was 74%. Moreover, the “Difference (B) − (A)” value in data set [1] is “+3”. Also, in data set [1] (setting [8]), the “Cells + MG scavengers (A)” value worked out at 71%.
On to `CCC(C)[C@H](NC(=O)[C@@H](N)CN)C(=O)O` (stereo partly drawn) [example 18, L-DAPA-L-Ile.2HCl] (H-[Dap]-[Ile(3ξ)]-OH), for which the “Enzymatic activity (%)” value in data set [2] is 90.77%. In addition, in data set [1], the “cell survival when incubated with MG” value was 79%; the “Difference (B) − (A)” value is −7; the “effect against suppression” value is “same trend”; the “difference between number” value is given as −9. In addition, the viability at 1000 µM in data set [1] (setting [7]) came out at 79%. For the same compound, the “Cells + MG scavengers (A)” value in data set [1] (setting [8]) was determined as 86%. Also, the “protection from structural modifications” value in data set [3] is given as “provides protection”. The “protection from structural modifications” value in data set [4] is “provides protection”. In addition, in data set [5] (MG 10 mM, 24 hours, non-denaturing electrophoresis), the “gain of negative charge of glyoxalase I exposed to MG” value is listed as “inhibits the gain of negative charge”. Besides, the “inhibition of glyoxalase I enzymatic activity and structural modification by methylglyoxal” value in data set [5] (MG alone: 50% decrease in enzymatic activity) was “prevents the inhibition exerted by methylglyoxal and protects against structural modifications”. In addition, the “RNase A modifications induced by methylglyoxal” value in data set [6] is on record as “prevent the modifications to RNase A”.
In the case of `CC(C)[C@H](NC(=O)[C@@H](N)[C@H](N)C(=O)N[C@H](C(=O)O)C(C)C)C(=O)O` [example 29, (2S,3S)-DASA-1-L-Val-4-L-Val.2HCl], in data set [2], the “Enzymatic activity (%)” value worked out at 75.09%. Moreover, the viability at 1000 µM in data set [1] (setting [7]) was determined as 70%. In data set [1], the “Difference (B) − (A)” value is −15; the “difference between number” value is on record as −15. In addition, the “Cells + MG scavengers (A)” value in data set [1] (setting [8]) is given as 85%. Also, the “protection from structural modifications” value in data set [3] is recorded as “provides protection”. In data set [4], the “protection from structural modifications” value was “provides protection”.
